The values that follow are results of earlier work, collected in patent US7223414B1, “Silica-calcium phosphate bioactive composite for improved synthetic graft resorbability and tissue regeneration” (priority 2002, dated 2007).

Counter-ions that a name gives are not always drawn.

The data set relates to Staphylococcus aureus.

On to `CN[C@H](CC(C)C)C(=O)N[C@H]1C(=O)N[C@@H](CC(N)=O)C(=O)N[C@H]2C(=O)N[C@H]3C(=O)N[C@H](C(=O)N[C@H](C(=O)O)c4cc(O)cc(O)c4-c4cc3ccc4O)[C@H](O)c3ccc(c(Cl)c3)Oc3cc2cc(c3O[C@@H]2O[C@H](CO)[C@@H](O)[C@H](O)[C@H]2O[C@H]2C[C@](C)(N)[C@H](O)[C@H](C)O2)Oc2ccc(cc2Cl)[C@H]1O` [vancomycin hydrochloride, Vancomycin hydrochloride], for which the breakpoint sensitivity was 5 mg/L, the minimum bactericidal concentrations was 2.34 mg/L and the minimum inhibitory concentration is 1.18 mg/L.
